Assay results reported in ChEMBL document CHEMBL1139902, “Synthesis and SAR of succinamide peptidomimetic inhibitors of cathepsin S” (Bioorg Med Chem Lett, 2007).

How the values were obtained:
[1] = Half life in Wistar rat at 10 mg/kg. po; assay type: ADME, organism-based; design: dose 10 mg/kg, route oral; details: in vivo
[2] = Cmax in Wistar rat at 10 mg/kg. po; assay type: ADME, organism-based; design: dose 10 mg/kg, route oral; details: in vivo
Procathepsin L = Procathepsin L (Homo sapiens, UniProt P07711); test: Inhibition of cathepsin L
Sequence of Procathepsin L (P07711 whole entry): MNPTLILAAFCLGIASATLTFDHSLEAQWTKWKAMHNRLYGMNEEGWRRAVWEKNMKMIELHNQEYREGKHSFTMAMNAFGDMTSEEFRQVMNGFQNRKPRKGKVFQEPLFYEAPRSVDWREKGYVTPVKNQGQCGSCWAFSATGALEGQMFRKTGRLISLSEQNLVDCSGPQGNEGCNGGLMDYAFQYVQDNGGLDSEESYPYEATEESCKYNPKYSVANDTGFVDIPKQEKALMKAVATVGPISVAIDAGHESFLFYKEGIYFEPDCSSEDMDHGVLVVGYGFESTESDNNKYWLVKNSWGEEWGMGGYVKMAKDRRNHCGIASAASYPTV

Cathepsin S = Cathepsin S (Homo sapiens, UniProt P25774)
Sequence of Cathepsin S (P25774 whole entry): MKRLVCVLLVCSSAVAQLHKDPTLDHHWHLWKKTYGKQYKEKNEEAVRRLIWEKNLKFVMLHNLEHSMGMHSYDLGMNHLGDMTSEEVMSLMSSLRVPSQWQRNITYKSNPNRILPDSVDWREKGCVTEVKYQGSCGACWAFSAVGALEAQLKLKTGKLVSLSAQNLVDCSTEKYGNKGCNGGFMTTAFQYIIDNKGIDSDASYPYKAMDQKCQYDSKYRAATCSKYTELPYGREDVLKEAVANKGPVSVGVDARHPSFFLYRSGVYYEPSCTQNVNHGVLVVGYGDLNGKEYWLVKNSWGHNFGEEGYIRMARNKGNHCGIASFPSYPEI
Description: Inhibition of cathepsin S

[3] = Tmax in Wistar rat at 10 mg/kg. po; assay type: ADME, organism-based; design: dose 10 mg/kg, route oral; details: in vivo
[4] = AUC in Wistar rat at 10 mg/kg, po; assay type: ADME, organism-based; design: dose 10 mg/kg, route oral; details: plasma
Cathepsin K = molecular target: T1, Cathepsin K (Homo sapiens, UniProt P43235); test: Inhibition of cathepsin K
T1 sequence (P43235 whole entry): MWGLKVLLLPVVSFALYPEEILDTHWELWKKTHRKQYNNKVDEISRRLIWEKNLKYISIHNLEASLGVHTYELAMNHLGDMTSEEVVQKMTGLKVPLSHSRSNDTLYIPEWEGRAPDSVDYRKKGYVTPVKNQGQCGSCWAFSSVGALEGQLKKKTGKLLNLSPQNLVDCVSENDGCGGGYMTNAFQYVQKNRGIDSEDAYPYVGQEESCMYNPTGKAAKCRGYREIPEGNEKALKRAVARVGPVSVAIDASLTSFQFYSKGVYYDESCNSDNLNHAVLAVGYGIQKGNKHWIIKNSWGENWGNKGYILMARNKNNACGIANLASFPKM

SMILES | half-life [1] [h] | Cmax [2] [µM] | Ki (Procathepsin L) [µM] | Ki (Cathepsin S) [µM] | Tmax [3] [h] | AUC [4] [nM·h] | Ki (Cathepsin K) [µM]
O=C(N[C@H](CNc1ccc(OC(F)(F)F)cc1)c1ccccc1)[C@@H](CC(=O)N1CCOCC1)CC1CCCCC1 | 1.22 | 0.815 | 3.52 | 0.062 | 2 | 2770 | > 30
CC(C)[C@@H](CNc1ccc(OC(F)(F)F)cc1)NC(=O)[C@@H](CC(=O)N1CCOCC1)c1ccc(Cl)cc1 | 1.82 | 0.72 | > 100 |  | 2 | 2820 | > 100
O=C(NCCNc1ccc(F)cc1)[C@@H](CC(=O)N1CCOCC1)CC1CCCCC1 |  |  | > 30 | 1.37 |  |  | > 30
O=C(NCCNc1ccc(OC(F)(F)F)cc1)[C@@H](CC(=O)N1CCOCC1)CC1CCCCC1 |  |  | > 30 | 0.194 |  |  | > 100
C[C@@H](CNc1ccc(OC(F)(F)F)cc1)NC(=O)[C@@H](CC(=O)N1CCOCC1)c1ccc(C(F)(F)F)cc1 |  |  | > 100 |  |  |  | > 100
O=C(NCCNc1ccc(F)cc1)[C@H](CC(=O)N1CCOCC1)CC1CCCCC1 |  |  | > 100 | > 100 |  |  | > 100
O=C(C[C@H](CC1CCCCC1)C(=O)N1CCOCC1)NCCNc1ccc(F)cc1 |  |  | > 100 | > 100 |  |  | > 100
CC(C)[C@@H](CNc1ccc(OC(F)(F)F)cc1)NC(=O)[C@@H](CC(=O)N1CCOCC1)c1ccccc1C(F)(F)F |  |  | > 100 | > 100 |  |  | > 100
C[C@@H](CNc1ccc(OC(F)(F)F)cc1)NC(=O)[C@@H](CC(=O)N1CCOCC1)CC1CCCCC1 | 0.87 | 0.983 | 18.9 | 0.028 | 1.5 | 2780 | 24.3
Cc1ccc([C@H](CC(=O)N2CCOCC2)C(=O)N[C@H](CNc2ccc(OC(F)(F)F)cc2)C(C)C)cc1 |  |  | > 100 | 0.134 |  |  | > 30
O=C(NCCNc1ccc(OC(F)(F)F)cc1)[C@@H](CC(=O)N1CCOCC1)c1ccc(C(F)(F)F)cc1 |  |  |  |  |  |  | > 100
O=C(N[C@H](CNc1ccc(OC(F)(F)F)cc1)C1CC1)[C@@H](CC(=O)N1CCOCC1)c1ccc(C(F)(F)F)cc1 |  |  | > 100 | 0.616 |  |  | > 100
C[C@@H](CN1CCc2cc(F)ccc21)NC(=O)[C@@H](CC(=O)N1CCOCC1)Cc1ccccc1 |  |  | 8.86 | > 24 |  |  | > 30
CC(C)[C@@H](CNc1ccc(OC(F)(F)F)cc1)NC(=O)[C@@H](CC(=O)N1CCOCC1)c1ccc(C(F)(F)F)cc1 | 2.26 | 0.946 | > 100 | 0.043 | 2 | 4630 | > 100
O=C(C[C@@H](CC1CCCCC1)C(=O)N1CCOCC1)NCCNc1ccc(F)cc1 |  |  | > 100 | 1.72 |  |  | > 100
O=C(NCCN1CCc2cc(F)ccc21)[C@H](CC1CCCCC1)NC(=O)N1CCOCC1 | 1.12 | 0.14 |  |  | 0.33 | 312 | 
C[C@@H](CNc1ccc(OC(F)(F)F)cc1)NC(=O)[C@H](CCC(C)(C)C)CC(=O)N1CCOCC1 |  |  | > 100 |  |  |  | > 100
CC(C)[C@@H](CNc1ccc(OC(F)(F)F)cc1)NC(=O)[C@@H](CC(=O)N1CCOCC1)c1cccc(C(F)(F)F)c1 |  |  | > 30 | 18.5 |  |  | > 100
COc1ccc([C@H](CC(=O)N2CCOCC2)C(=O)N[C@H](CNc2ccc(OC(F)(F)F)cc2)C(C)C)cc1 | 1.06 | 0.789 | > 65 |  | 1 | 2040 | > 30
O=C(N[C@@H](CCc1ccccc1)CNc1ccc(OC(F)(F)F)cc1)[C@H](CCC1CCCC1)CC(=O)N1CCOCC1 |  |  | 2.31 | 0.2 |  |  | > 30
C[C@@H](CN1CCc2cc(F)ccc21)NC(=O)[C@@H](CC(=O)N1CCOCC1)CC1CCCCC1 | 1.12 | 0.024 |  |  | 0.42 | 48 | 
CC(C)[C@@H](CNc1ccc(OC(F)(F)F)cc1)NC(=O)[C@H](CCC1CCCC1)CC(=O)N1CCOCC1 |  |  |  | 0.011 |  |  | > 26.4

Continued by falling Ki (Cathepsin K), values first:

half-life [1] [h] | Cmax [2] [µM] | Ki (Procathepsin L) [µM] | Ki (Cathepsin S) [µM] | Tmax [3] [h] | AUC [4] [nM·h] | Ki (Cathepsin K) [µM] | SMILES
0.92 | 0.647 | 11.5 | 0.025 | 0.7 | 1910 | 11.5 | CC(C)[C@@H](CNc1ccc(OC(F)(F)F)cc1)NC(=O)[C@@H](CC(=O)N1CCOCC1)c1ccccc1
0.97 | 0.629 | 11.5 | 0.024 | 1.67 | 1870 | 11.5 | CC(C)[C@@H](CNc1ccc(OC(F)(F)F)cc1)NC(=O)[C@@H](CC(=O)N1CCOCC1)c1ccc(F)cc1
 |  |  | 0.261 |  |  | 10.5 | O=C(N[C@H](CNc1ccc(OC(F)(F)F)cc1)c1ccccc1)[C@@H](CC(=O)N1CCOCC1)c1ccccc1
 |  |  | 0.069 |  |  | 5.41 | CS(=O)(=O)CC[C@H](CNc1ccc(OC(F)(F)F)cc1)NC(=O)[C@@H](CC(=O)N1CCOCC1)CC1CCCCC1
0.68 | 0.318 | > 30 |  | 1 | 806 | 3.71 | C[C@@H](CNc1ccc(OC(F)(F)F)cc1)NC(=O)[C@@H](CC(=O)N1CCOCC1)CC1CCCC1
 |  | > 30 | 0.095 |  |  | 3.71 | C[C@@H](CNc1ccc(OC(F)(F)F)cc1)NC(=O)[C@H](CCC1CCCCC1)CC(=O)N1CCOCC1
 |  | > 100 |  |  |  | 2.33 | C[C@@H](CNc1ccc(OC(F)(F)F)cc1)NC(=O)[C@@H](CC(=O)N1CCOCC1)CC(C)(C)C
 |  |  | 0.014 |  |  | 2.12 | CC(C)[C@@H](CNc1ccc(OC(F)(F)F)cc1)NC(=O)[C@H](CCCc1ccccc1)CC(=O)N1CCOCC1
 |  | 0.636 | 0.018 |  |  | 1.48 | O=C(N[C@@H](CCc1ccccc1)CNc1ccc(OC(F)(F)F)cc1)[C@@H](CC(=O)N1CCOCC1)CC1CCCCC1
 |  |  | 0.038 |  |  | 1.14 | CC(C)[C@@H](CNc1ccc(OC(F)(F)F)cc1)NC(=O)[C@@H](CC(=O)N1CCOCC1)CC1CCCC1
1.06 | 0.241 |  | 0.011 | 1.7 | 831 | 0.995 | CC(C)[C@@H](CNc1ccc(OC(F)(F)F)cc1)NC(=O)[C@@H](CC(=O)N1CCOCC1)CC1CCCCC1
 |  | 0.267 |  |  |  | 0.907 | CC[C@@H](CNc1ccc(OC(F)(F)F)cc1)NC(=O)[C@@H](CC(=O)N1CCOCC1)CC1CCCCC1
 |  |  | 0.037 |  |  | 0.71 | O=C(N[C@@H](CCc1ccccc1)CNc1ccc(OC(F)(F)F)cc1)[C@@H](CC(=O)N1CCOCC1)c1ccccc1
1.23 | 0.22 | 0.285 | 0.013 | 1.83 | 752 | 0.557 | CCC[C@@H](CNc1ccc(OC(F)(F)F)cc1)NC(=O)[C@@H](CC(=O)N1CCOCC1)CC1CCCCC1
 |  | 0.588 | 0.06 |  |  | 0.291 | CC[C@@H](CNc1ccc(OC(F)(F)F)cc1)NC(=O)[C@H](CCc1ccccc1)CC(=O)N1CCOCC1
 |  |  | 0.005 |  |  | 0.26 | CS(=O)(=O)CC[C@@H](CNc1ccc(OC(F)(F)F)cc1)NC(=O)[C@@H](CC(=O)N1CCOCC1)CC1CCCCC1
 |  | 2.68 | 0.012 |  |  | 0.217 | CCC[C@@H](CNc1ccc(OC(F)(F)F)cc1)NC(=O)[C@@H](CC(=O)N1CCOCC1)CC1CCCC1
 |  | 0.372 | 0.027 |  |  | 0.184 | CC(C)[C@@H](CNc1ccc(OC(F)(F)F)cc1)NC(=O)[C@H](CCc1ccccc1)CC(=O)N1CCOCC1
